From ChEMBL document CHEMBL1782005, “Turnagainolides A and B, cyclic depsipeptides produced in culture by a Bacillus sp.: isolation, structure elucidation, and synthesis” (J Nat Prod, 2011) come the findings set out here.

The experiment has as its target T1, Phosphatidylinositol 3,4,5-trisphosphate 5-phosphatase 1 (Homo sapiens) (UniProt Q92835).
T1 sequence (whole entry): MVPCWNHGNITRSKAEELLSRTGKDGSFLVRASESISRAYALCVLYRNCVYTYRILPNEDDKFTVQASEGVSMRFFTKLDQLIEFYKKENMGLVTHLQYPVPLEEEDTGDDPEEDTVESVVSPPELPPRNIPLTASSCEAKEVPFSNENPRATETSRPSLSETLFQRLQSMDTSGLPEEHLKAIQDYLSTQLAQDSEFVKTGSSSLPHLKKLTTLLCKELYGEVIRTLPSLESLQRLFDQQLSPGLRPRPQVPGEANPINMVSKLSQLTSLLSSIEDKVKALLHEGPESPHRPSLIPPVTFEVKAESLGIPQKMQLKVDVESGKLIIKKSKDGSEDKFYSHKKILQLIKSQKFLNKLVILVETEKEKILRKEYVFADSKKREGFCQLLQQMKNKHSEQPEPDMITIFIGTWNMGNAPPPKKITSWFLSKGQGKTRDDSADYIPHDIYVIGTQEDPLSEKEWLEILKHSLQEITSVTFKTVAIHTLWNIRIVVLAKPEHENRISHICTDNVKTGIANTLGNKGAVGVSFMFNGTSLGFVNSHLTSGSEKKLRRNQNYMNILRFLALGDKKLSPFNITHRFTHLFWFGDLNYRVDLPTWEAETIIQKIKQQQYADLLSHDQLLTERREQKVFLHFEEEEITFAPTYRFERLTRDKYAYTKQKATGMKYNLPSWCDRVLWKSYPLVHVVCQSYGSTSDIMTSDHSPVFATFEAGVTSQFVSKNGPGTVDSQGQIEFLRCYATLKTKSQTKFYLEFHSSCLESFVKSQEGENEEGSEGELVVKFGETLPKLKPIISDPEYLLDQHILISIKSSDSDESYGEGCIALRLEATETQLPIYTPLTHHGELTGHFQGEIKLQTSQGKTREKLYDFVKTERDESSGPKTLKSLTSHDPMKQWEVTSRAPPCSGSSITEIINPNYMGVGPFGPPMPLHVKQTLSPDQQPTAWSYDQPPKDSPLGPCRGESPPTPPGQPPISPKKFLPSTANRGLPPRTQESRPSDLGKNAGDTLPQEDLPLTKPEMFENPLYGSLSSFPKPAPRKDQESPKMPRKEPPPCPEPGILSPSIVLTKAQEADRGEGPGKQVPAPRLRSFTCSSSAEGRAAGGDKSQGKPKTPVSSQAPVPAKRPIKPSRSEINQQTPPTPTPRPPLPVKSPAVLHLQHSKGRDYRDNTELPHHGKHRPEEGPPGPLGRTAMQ
Nature of the experiment: Activation of SHIP1 using IP4 as substrate at 10 uM preincubated for 10 mins before addition of IP4 measured after 10 mins.

Active and inactive are the calls of the source. The rule behind the calls is not given here.

In the case of `Cc1cc(O)cc2c1[C@]1(C)CC[C@H]3C(C)(C)CCC[C@]3(C)[C@H]1C2`, the result was Active. In the case of `CC[C@H](C)[C@@H]1NC(=O)[C@@H](C)NC(=O)[C@H](C(C)C)NC(=O)C[C@@H](/C=C/c2ccccc2)OC(=O)[C@H](C(C)C)NC1=O` it was “Active”; in that of `CC[C@H](C)[C@@H]1NC(=O)[C@@H](C)NC(=O)[C@H](C(C)C)NC(=O)C[C@H](/C=C/c2ccccc2)OC(=O)[C@H](C(C)C)NC1=O`, “inactive”.
